Data set [1] is described as follows: Single subcutaneous dose pharmacokinetics in irradiated and unirradiated mice. The format is in vivo, C57BL/6 mice. The conditions noted are these: single SC dose 1 mg/kg. An excerpt:
We performed a randomized, open-label, single-dose, four-arm, subcutaneously-administered, study of the pharmacokinetics of Rx100.Ammonia and Rx100.Lysine in irradiated and unirradiated C57BL/6 mice to evaluate the effect of salt form and irradiation on extravascular pharmacokinetics. The purpose of this study was to evaluate the pharmacokinetic parameters for two salt forms of Rx100 (Lysine and Ammonia) in healthy and PB irradiated (IR) mice when administered as a single dose. Each animal received a 1 mg/kg dose of Rx100.Lysine or Rx100.Ammonia. The animals receiving Rx100.Lysine or Rx100.Ammonia after irradiation were dosed 26±2 hours after irradiation and sampling times are relative to the time of test article dosing.
More specifically, randomized, acclimated, C57BL/6 mice were administered Rx100.Lysine or Rx100.Ammonia (10 mM L-histidine in sterile water for injection, or 1% ethanol, 2% propylene glycol in PBS, respectively) as a single dose as indicated in Table 25.
Blood was collected from 4 male and 4 female mice via cardiac puncture at pre-defined time points relative to test article dosing (0.5, 1, 2, 4, 6, 8, 12, 18, 24, and 48 hours) and collected into micro plasma separator vials (BD Microtainer®) containing lithium heparin. Blood was maintained on ice until centrifugation and subsequent processing. Blood draws were a terminal procedure. Plasma was frozen at −80° C. until submitted for bioanalysis. Sample collection was completed in September 2012. Samples were transferred to Covance in December 2013, and sample analysis was complete in the first quarter of 2014.
A total of 160 male and 160 female C57BL/6 10-12 week old mice were used in this study. Animals were randomized with weight stratification into treatment groups and given a second ear tag. Animals were acclimated for 16-19 days (See below Table 26). Prior to irradiation or dosing (in non-irradiated groups), animals were weighed a second time which was the basis of the animal dose delivered.
TLDs were used for dosimetry and confirmation of the delivered dose. TLDs were analyzed by MD Anderson and have a +/−5% accuracy. A total of 19 dosimeters were used with a mean measured dose of 15.33±0.166 Gy.
Analysis was performed using qualified and validated Phoenix® WinNonlin® Software. The final data provided was imported into Phoenix® WinNonlin®. All data presented in the tables and figures within the results section of this report were generated using the validated Phoenix® WinNonlin® Software.

Data set [2] relates to Cultured human peripheral lymphocytes cells. The class given is cell-based. The conditions noted are these: for Aberrant Cells Mean % −g: excluding gaps only; for Aberrant Cells Mean % +g: plus cells with gaps only. Here is the method: Cultured human peripheral lymphocytes cells were incubated in vitro with Rx100.Lysine for 3 hours with and without S9 mix and for 24 hours without S9 mix. For Rx100.Lysine, concentrations ranging from 3.39 to 500 μg/mL were examined in both treatment conditions. Adjusting for purity, the concentration ranges were 3.06 to 452 μg/mL. […] This increase was just above the historical vehicle control range (0 to 2.0%) for 3 hour treatment without metabolic activation. Thus the response observed is a weak positive and of questionable biological significance cytotoxicity was present just below the acceptable limit of 50±5% for this assay.
Thus, Rx100.Lysine was considered negative for inducing chromosome aberrations, polyploidy and endoreduplication, in cultured human peripheral blood lymphocytes following a 3 hour treatment with and a 24 treatment without metabolic activation.

The mark [3] stands for this setting: + IR (irradiated mice), whole group (not split by gender), 1 mg/kg.
[4] abbreviates: healthy mice, whole group (not split by gender), 1 mg/kg.
The mark [5] stands for this setting: irradiated mice (15.6 Gy, dosed 26 ± 2 h after), F, 1 mg/kg.
Setting [6] is: irradiated mice (15.6 Gy, dosed 26 ± 2 h after), M, 1 mg/kg.
Where [7] appears, read: 3-hour treatment without metabolic activation, positive control 1.00 μg/mL.
[8] abbreviates: 24-hour treatment without metabolic activation, positive control 0.300 μg/mL.
Setting [9] is: 3-hour treatment with metabolic activation, positive control 25.0 μg/mL.

Like-named read-outs stand apart in the source and are kept apart here.

In general, AUC refers to the area under the concentration-time curve, a measure of exposure. Read a high AUC as more exposure. As a reminder, the Tmax is the time from dosing to the highest level. As usually defined, the Cmax is the peak of the concentration-time curve. `CCCCCCCC/C=C\CCCCCCCCOP(O)(O)=S` [Rx100.Ammonia, (Z)—O-octadec-9-en-1-yl O,O-dihydrogen phosphorothioate]: the CL is 10.5 mL/min/kg in data set [1] (IR females), 9.68 mL/min/kg in data set [1] (IR males), 14.5 mL/min/kg in data set [1] (healthy females) and 11 mL/min/kg in data set [1] (healthy males). Moreover, the AUC in data set [1] (IR females, 1 mg/kg) was determined as 1591 ng·h/mL; in data set [1] (IR males, 1 mg/kg), 1721 ng·h/mL; in data set [1] (healthy males, 1 mg/kg) it was 1521 ng·h/mL. Besides, the “half-life, change after irradiation” value in data set [1] (IR versus healthy mice) was “no change”. The “exposure (AUC)” value in data set [1] (healthy females, 1 mg/kg) amounted to 1152 ng·h/mL. Moreover, the Tmax in data set [1] (healthy mice, 1 mg/kg) is 30 to 60 min; in data set [1] (irradiated (IR) mice, 26±2 hours after 15.6 Gy, 1 mg/kg), 30 to 60 min. In addition, the AUCINF_obs is 1644.99 ng·h/mL in data set [1] (setting [3]); 1152.19 ng·h/mL in data set [1] (healthy mice, F, 1 mg/kg); 1521.44 ng·h/mL in data set [1] (healthy mice, M, 1 mg/kg); 1342.00 ng·h/mL in data set [1] (setting [4]); 1591.05 ng·h/mL in data set [1] (setting [5]); 1720.87 ng·h/mL in data set [1] (setting [6]). Also, the CLss_F in data set [1] (setting [3]) came out at 10.132 mL/min/kg; in data set [1] (healthy mice, F, 1 mg/kg), 14.466 mL/min/kg; in data set [1] (healthy mice, M, 1 mg/kg), 10.954 mL/min/kg; in data set [1] (setting [4]) it was 12.419 mL/min/kg; in data set [1] (setting [5]), 10.475 mL/min/kg; in data set [1] (setting [6]) it was 9.685 mL/min/kg. Also, the Cmax in data set [1] (setting [3]) stood at 466.71 ng/mL; in data set [1] (setting [4]), 383.75 ng/mL. Besides, the results for the HL_Lambda_z in data set [1] (setting [3]) and in data set [1] (setting [4]) were 1.37 h and 1.78 h, respectively. The Vz_F in data set [1] (setting [3]) is 1.20034 L/kg; in data set [1] (healthy mice, F, 1 mg/kg) it was 1.72837 L/kg; in data set [1] (healthy mice, M, 1 mg/kg), 1.3407 L/kg; in data set [1] (setting [4]) it was 1.91818 L/kg; in data set [1] (setting [5]), 1.22969 L/kg; in data set [1] (setting [6]), 1.27697 L/kg.
On to `CO[C@@]12[C@H](COC(N)=O)C3=C(C(=O)C(C)=C(N)C3=O)N1C[C@@H]1N[C@@H]12` [Mitomycin C], for which, in data set [2] (setting [7]), the “Endoreduplicate Mean %” value is recorded as 0.0%, the “Polyploidy Mean %” value amounted to 0.0%, the “Aberrant Cells Mean % −g” value worked out at 57.0% and the “Aberrant Cells Mean % +g” value is reported as 59.0%. Further, in data set [2] (setting [8]), the “Endoreduplicate Mean %” value was found to be 0.0%, the “Polyploidy Mean %” value turned out to be 0.0%, the “Aberrant Cells Mean % −g” value was 58.0% and the “Aberrant Cells Mean % +g” value worked out at 61.0%.
For `O=P1(N(CCCl)CCCl)NCCCO1` (stereo not shown) [cyclophosphamide, reference compound], in data set [2] (setting [9]), the “Cytotoxicity (% of Control)” value is reported as 12 % of Control, the “Endoreduplicate Mean %” value is 0.0%, the “Polyploidy Mean %” value worked out at 0.0% and the “Aberrant Cells Mean % −g” value was found to be 58.0%. Besides, in data set [2] (setting [9]), the “Aberrant Cells Mean % +g” value is on record as 65.0%.

These data come from patent US20170226139A1, “CRYSTALLINE SALTS OF (Z)-O-OCTADEC-9-EN-1-YL O,O-DIHYDROGEN PHOSPHOROTHIOATE” (priority 2013, published 2017).
